Measured values taken from ChEMBL document CHEMBL1833788, “Selective water-soluble gelatinase inhibitor prodrugs” (J Med Chem, 2011).

Legend:
[1] = Solubility of the compound in aqueous solution at 10 mg/ml by UV spectroscopy; assay type: physicochemical
[2] = Chemical stability of the compound in aqueous solution at 10 mg/ml by HPLC after 1 month; assay type: physicochemical; settings: buffer, 730.5 h
Plasma [3] = test: Half life in human plasma at 10 mM by reversed-phase HPLC/UV analysis; assay type: ADME, cell-free; settings: 10000 µM
Blood [4] = test: Half life in human blood at 10 mM by reversed-phase HPLC/UV analysis; assay type: ADME, tissue-based; settings: 10000 µM
Blood [5] = test: Prodrug conversion in human blood assessed as release of 4-[4-((Thiiran-2-yl)methylsulphonyl)phenoxy]benzamine at 10 mM after 30 mins by reversed-phase HPLC/UV analysis; assay type: ADME, tissue-based; settings: 0.5 h, 10000 µM
[6] = biological target: Matrix metalloproteinase-9 (Homo sapiens, UniProt P14780)
Description: Inhibition of human recombinant MMP9 catalytic domain assessed as hydrolysis of MOCAcPLGLA2pr(Dnp)AR-NH2 by fluorescence spectrofluorometry

[7] = Chemical stability of the compound in aqueous solution at 10 mg/ml by HPLC up to 2 hrs; assay type: physicochemical; settings: buffer
Plasma [8] = test: Metabolic stability of the compound in human plasma at 10 mM after 2 mins by reversed-phase HPLC/UV analysis; assay type: ADME, cell-free; settings: 10000 µM
[9] = biological target: T1, Interstitial collagenase (Homo sapiens) (UniProt P03956); test: Inhibition of human recombinant MMP1 catalytic domain assessed as hydrolysis of MOCAcPLGLA2pr(Dnp)AR-NH2 at 300 uM by fluorescence spectrofluorometry
T1 sequence (whole entry): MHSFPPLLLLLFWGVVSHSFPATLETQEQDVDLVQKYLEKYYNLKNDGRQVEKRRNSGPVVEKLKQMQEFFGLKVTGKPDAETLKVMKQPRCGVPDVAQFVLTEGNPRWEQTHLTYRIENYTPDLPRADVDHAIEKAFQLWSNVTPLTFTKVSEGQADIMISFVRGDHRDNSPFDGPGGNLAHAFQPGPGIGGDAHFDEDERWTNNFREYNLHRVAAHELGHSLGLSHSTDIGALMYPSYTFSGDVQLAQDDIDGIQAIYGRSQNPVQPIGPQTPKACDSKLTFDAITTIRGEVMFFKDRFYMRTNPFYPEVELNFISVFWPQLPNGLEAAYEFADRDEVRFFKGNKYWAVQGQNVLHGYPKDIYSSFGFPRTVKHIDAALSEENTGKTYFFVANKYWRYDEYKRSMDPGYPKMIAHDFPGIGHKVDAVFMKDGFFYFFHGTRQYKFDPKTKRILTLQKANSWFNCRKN

[10] = biological target: Stromelysin-1 (Homo sapiens) (UniProt P08254); test: Inhibition of human recombinant MMP3 catalytic domain assessed as hydrolysis of MOCAcPLGLA2pr(Dnp)AR-NH2 at 300 uM fluorescence by spectrofluorometry
Mus musculus [11] = test: AUC (0 to infinity) in C57B1/6 mouse plasma assessed as parent compound level at […], iv administered as single bolus dose; assay type: ADME, organism-based; settings: in vivo
Mus musculus [12] = test: Clearance in C57B1/6 mouse plasma assessed as parent compound level at […], iv administered as single bolus dose; assay type: ADME, organism-based; settings: in vivo
Mus musculus [13] = test: Volume of distribution in C57B1/6 mouse plasma assessed as parent compound level at […], iv administered as single bolus dose; assay type: ADME, organism-based; settings: in vivo
Mus musculus [14] = test: Terminal half life in C57B1/6 mouse plasma assessed as parent compound level at […], iv administered as single bolus dose; assay type: ADME, organism-based; settings: in vivo
Mus musculus [15] = test: AUC (0 to last) in C57B1/6 mouse plasma assessed as N-(4-(4-(thiiran-2-ylmethylsulfonyl)phenoxy)phenyl)acetamide level at […], iv administered as single bolus dose; assay type: ADME, organism-based; settings: in vivo
Mus musculus [16] = test: Distribution half life in C57B1/6 mouse plasma assessed as N-(4-(4-(thiiran-2-ylmethylsulfonyl)phenoxy)phenyl)acetamide level at […], iv administered as single bolus dose; assay type: ADME, organism-based; settings: in vivo
Mus musculus [17] = test: AUC (0 to infinity) in C57B1/6 mouse plasma assessed as N-(4-(4-(thiiran-2-ylmethylsulfonyl)phenoxy)phenyl)acetamide level at […], iv administered as single bolus dose; assay type: ADME, organism-based; settings: in vivo, BLD = below limit of detection
Mus musculus [18] = test: Terminal half life in C57B1/6 mouse plasma assessed as N-(4-(4-(thiiran-2-ylmethylsulfonyl)phenoxy)phenyl)acetamide level at […], iv administered as single bolus dose; assay type: ADME, organism-based; settings: in vivo, BLD = below limit of detection
Mus musculus [19] = test: Prodrug conversion in C57B1/6 mouse assessed as N-(4-(4-((Thiiran-2-ylmethyl)sulfonyl)phenoxy)phenyl) hydroxylamine level in plasma at […], iv administered as single dose by reversed-phase LC/MS analysis; assay type: ADME, organism-based; settings: in vivo
Mus musculus [20] = test: Prodrug conversion in C57B1/6 mouse assessed as N-(4-(4-((Thiiran-2-ylmethyl)sulfonyl)phenoxy)phenyl) hydroxylamine level in urine at […], iv administered as single dose by reversed-phase LC/MS analysis; assay type: ADME, organism-based; settings: in vivo
Mus musculus [21] = test: Prodrug conversion in C57B1/6 mouse assessed as N-(4-(4-(thiiran-2-ylmethylsulfonyl)phenoxy)phenyl)acetamide level in plasma at […], iv administered as single bolus dose after 30 mins by reversed-phase LC/MS analysis; settings: in vivo, 0.5 h
Mus musculus [22] = test: Prodrug conversion in C57B1/6 mouse assessed as N-(4-(4-(thiiran-2-ylmethylsulfonyl)phenoxy)phenyl)acetamide level in plasma at […], iv administered as single bolus dose after 2 to 3 mins by reversed-phase LC/MS analysis; settings: in vivo
Mus musculus [23] = test: Prodrug conversion in C57B1/6 mouse assessed as N-(4-(4-(thiiran-2-ylmethylsulfonyl)phenoxy)phenyl)acetamide level in plasma at […], iv administered as single bolus dose after 7 to 8 mins by reversed-phase LC/MS analysis; settings: in vivo
Mus musculus [24] = test: Prodrug conversion in C57B1/6 mouse assessed as N-(4-(4-(thiiran-2-ylmethylsulfonyl)phenoxy)phenyl)acetamide level in plasma at […], iv administered as single bolus dose after 11 to 12 mins by reversed-phase LC/MS analysis; settings: in vivo
Mus musculus [25] = test: Prodrug conversion in C57B1/6 mouse assessed as N-(4-(4-(thiiran-2-ylmethylsulfonyl)phenoxy)phenyl)acetamide level in plasma at […], iv administered as single bolus dose after 62 to 66 mins by reversed-phase LC/MS analysis; settings: in vivo
Mus musculus [26] = test: Prodrug conversion in C57B1/6 mouse assessed as N-(4-(4-(thiiran-2-ylmethylsulfonyl)phenoxy)phenyl)acetamide level in plasma at […], iv administered as single bolus dose after 120 to 123 mins by reversed-phase LC/MS analysis; settings: in vivo
Salmonella typhimurium [27] = test: Induction of mutagenicity in Salmonella Typhimurium TA98 at 1 mg/mL after 48 hrs by Ames assay in presence of rat liver S9 metabolic activation system; assay type: toxicity, organism-based; settings: salmonella enterica subsp. enterica serovar typhimurium, s9, 48 h
Salmonella typhimurium [28] = test: Induction of mutagenicity in Salmonella Typhimurium TA98 at 1 mg/mL after 48 hrs by Ames assay in absence of rat liver S9 metabolic activation system; assay type: toxicity, organism-based; settings: salmonella enterica subsp. enterica serovar typhimurium, s9, 48 h
Liver = test: Half life in mouse liver microsomes at 100 uM by reversed-phase HPLC/UV analysis; assay type: ADME, Microsome
Liver microsomes [29] = test: Half life in rat liver microsomes at 100 uM by reversed-phase HPLC/UV analysis; assay type: ADME, Microsome
Liver microsomes [30] = test: Half life in human liver microsomes at 100 uM by reversed-phase HPLC/UV analysis; assay type: ADME, Microsome
[31] = Apparent intrinsic clearance in human liver microsomes; assay type: ADME, Microsome
Liver microsomes [32] = test: Prodrug conversion in rat liver microsomes assessed as release of 2-amino-5-(4-(thiiran-2-ylmethylsulfonyl)phenoxy)phenol after 30 mins by HPLC/MS analysis; assay type: ADME, Microsome; settings: 0.5 h
Liver microsomes [33] = test: Prodrug conversion in rat liver microsomes assessed as release of 4-(4-{[(1-oxidothiiran-2-yl)methyl]sulfonyl}phenoxy)aniline after 30 mins by HPLC/MS analysis; assay type: ADME, Microsome; settings: 0.5 h
Salmonella typhimurium [34] = test: Induction of mutagenicity in Salmonella Typhimurium TA7001 to TA7006 at 1 mg/mL after 48 hrs by Ames assay in presence of rat liver S9 metabolic activation system; assay type: toxicity, organism-based; settings: salmonella enterica subsp. enterica serovar typhimurium, s9, 48 h
Salmonella typhimurium [35] = test: Induction of mutagenicity in Salmonella Typhimurium TA7001 to TA7006 at 1 mg/mL after 48 hrs by Ames assay in absence of rat liver S9 metabolic activation system; assay type: toxicity, organism-based; settings: salmonella enterica subsp. enterica serovar typhimurium

Chain of Matrix metalloproteinase-9 (P14780 whole entry): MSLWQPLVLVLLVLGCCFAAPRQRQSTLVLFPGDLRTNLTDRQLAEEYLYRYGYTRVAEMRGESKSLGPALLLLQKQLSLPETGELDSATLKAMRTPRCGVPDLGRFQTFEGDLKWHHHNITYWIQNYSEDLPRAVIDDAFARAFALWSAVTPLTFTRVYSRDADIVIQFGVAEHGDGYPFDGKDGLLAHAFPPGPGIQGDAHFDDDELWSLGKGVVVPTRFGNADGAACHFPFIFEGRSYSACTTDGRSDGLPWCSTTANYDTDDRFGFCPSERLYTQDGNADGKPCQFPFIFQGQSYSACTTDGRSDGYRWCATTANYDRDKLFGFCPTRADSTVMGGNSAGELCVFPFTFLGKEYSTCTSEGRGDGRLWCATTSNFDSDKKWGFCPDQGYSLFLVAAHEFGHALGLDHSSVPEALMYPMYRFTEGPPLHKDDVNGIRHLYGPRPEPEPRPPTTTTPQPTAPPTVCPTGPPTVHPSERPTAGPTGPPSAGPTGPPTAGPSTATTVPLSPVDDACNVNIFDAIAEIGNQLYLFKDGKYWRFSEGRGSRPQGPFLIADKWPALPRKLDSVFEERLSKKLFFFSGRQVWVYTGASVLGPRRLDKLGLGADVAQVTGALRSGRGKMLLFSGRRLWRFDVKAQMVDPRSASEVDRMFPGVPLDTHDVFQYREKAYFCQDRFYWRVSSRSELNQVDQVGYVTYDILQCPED
Chain of Stromelysin-1 (Homo sapiens) (P08254 100-477 limits assumed): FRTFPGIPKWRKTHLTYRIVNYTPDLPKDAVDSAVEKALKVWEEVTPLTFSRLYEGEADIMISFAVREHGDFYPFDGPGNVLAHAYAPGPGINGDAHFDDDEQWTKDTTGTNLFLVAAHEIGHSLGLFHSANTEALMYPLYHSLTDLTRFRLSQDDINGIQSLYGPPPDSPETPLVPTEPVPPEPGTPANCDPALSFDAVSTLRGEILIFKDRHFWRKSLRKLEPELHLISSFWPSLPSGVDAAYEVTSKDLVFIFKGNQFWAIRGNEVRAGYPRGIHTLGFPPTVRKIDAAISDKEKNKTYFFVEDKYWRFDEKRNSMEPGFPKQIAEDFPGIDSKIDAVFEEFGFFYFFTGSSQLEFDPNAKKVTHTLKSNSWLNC

N[C@@H](CCC(=O)O)C(=O)Nc1ccc(Oc2ccc(S(=O)(=O)CC3CS3)cc2)cc1 (stereo not given in full)
solubility [1]: > 10 mg/mL | Stability [2]: Stable | t1/2 (Plasma [3]): 32.8 min | t1/2 (Blood [4]): 27.9 min | Drug metabolism (Blood [5]): Active | Ki [6]: 4.3 µM

N[C@@H](CCC(=O)O)C(=O)Oc1ccc(Oc2ccc(S(=O)(=O)CC3CS3)cc2)cc1 (stereo not given in full)
solubility [1]: > 10 mg/mL | Stability [7]: Unstable | Stability (Plasma [8]): Unstable

Nc1ccc(Oc2ccc(S(=O)(=O)CC3CS3)cc2)cc1O (stereo not given)
inhibition [9]: 11% | inhibition [10]: 54%

NCC(=O)Oc1ccc(Oc2ccc(S(=O)(=O)CC3CS3)cc2)cc1 (stereo not given)
solubility [1]: > 10 mg/mL | Stability [7]: Unstable | Stability (Plasma [8]): Unstable

Cl.Nc1ccc(Oc2ccc(S(=O)(=O)CC3CS3)cc2)cc1 (stereo not given)
AUC (Mus musculus [11]): 221 µM·min | CL (Mus musculus [12]): 5.25 L/h/kg | Vd (Mus musculus [13]): 0.532 L/kg | beta t1/2 (Mus musculus [14]): 21 min | AUClast (Mus musculus [15]): 7.71 µM·min | alphat1/2 (Mus musculus [16]): 5.1 min | AUC (Mus musculus [17]): BLD | beta t1/2 (Mus musculus [18]): BLD | Drug metabolism (Mus musculus [19]): Not Active | Drug metabolism (Mus musculus [20]): Not Active | Drug metabolism (Mus musculus [21]): 0.0958 µM | Drug metabolism (Mus musculus [22]): 0.197 µM | Drug metabolism (Mus musculus [23]): 0.192 µM | Drug metabolism (Mus musculus [24]): 0.15 µM | Drug metabolism (Mus musculus [25]): 0.0273 µM | Drug metabolism (Mus musculus [26]): 0.00277 µM

Nc1ccc(Oc2ccc(S(=O)(=O)CC3CS3)cc2)cc1 (stereo not given)
Activity (Salmonella typhimurium [27]): Non-toxic | Activity (Salmonella typhimurium [28]): Non-toxic | t1/2 (Liver): 27.3 min | t1/2 (Liver microsomes [29]): 23.4 min | t1/2 (Liver microsomes [30]): > 60 min | CLint scaled [31]: < 0.6 L/h/kg | Drug metabolism (Liver microsomes [32]): Active | Drug metabolism (Liver microsomes [33]): Active | Activity (Salmonella typhimurium [34]): Non-toxic | Activity (Salmonella typhimurium [35]): Non-toxic
